Measured values taken from ChEMBL document CHEMBL1201862, “PubChem BioAssay data set” (2004).
pIC50: −log10 of the molar value. Active and inactive are the calls of the source.

Legend:
[1] = HEp-2 cell cytotoxicity, dose response, cytotoxicity control for RSV inhibitor project, HTS (AID 2410); assay type: functional; conditions: human respiratory syncytial virus
[2] = biological target: T1, Dual specificity protein phosphatase 3 (Homo sapiens, UniProt P51452); assay: VHR1 phosphatase inhibitors, primary screen, biochemical, absorbance, uHTS (AID 1654)
T1 sequence (P51452 whole entry): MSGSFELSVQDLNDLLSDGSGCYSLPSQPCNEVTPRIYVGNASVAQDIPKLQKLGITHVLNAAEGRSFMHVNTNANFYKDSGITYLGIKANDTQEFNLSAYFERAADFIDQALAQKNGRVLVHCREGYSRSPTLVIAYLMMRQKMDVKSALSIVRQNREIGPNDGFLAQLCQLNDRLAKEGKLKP

[3] = biological target: Voltage-gated N-type calcium channel alpha-1B subunit/Amyloid beta A4 precursor protein-binding family A member 1 (Homo sapiens, UniProt Q00975+Q02410); assay type: protein assay
[4] = biological target: T1, Dual specificity protein phosphatase 3; assay: VHR1 phosphatase inhibitors, biochemical (AID 1878)
[5] = biological target: T2, Calpain-2 catalytic subunit (Sus scrofa, UniProt P43367); assay: pig calpain II inhibitor potency, dose response, biochemical, fluorogenic peptide substrate (AID 1420); assay type: functional
T2 sequence (P43367 whole entry): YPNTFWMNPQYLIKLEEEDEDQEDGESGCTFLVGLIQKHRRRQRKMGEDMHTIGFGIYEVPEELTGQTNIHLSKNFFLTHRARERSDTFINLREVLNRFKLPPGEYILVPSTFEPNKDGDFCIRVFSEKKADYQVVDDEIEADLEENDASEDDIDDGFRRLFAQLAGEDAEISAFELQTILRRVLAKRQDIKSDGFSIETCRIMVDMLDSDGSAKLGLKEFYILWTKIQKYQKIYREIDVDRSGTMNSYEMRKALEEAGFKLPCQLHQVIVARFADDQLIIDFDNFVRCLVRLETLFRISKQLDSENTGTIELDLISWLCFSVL

[6] = biological target: T3, Dual specificity protein phosphatase 6 (Rattus norvegicus, UniProt Q64346); assay: MKP-3 phosphatase inhibitors, primary screen, biochemical, rat enzyme, in vitro (AID 425)
T3 sequence (Q64346 whole entry): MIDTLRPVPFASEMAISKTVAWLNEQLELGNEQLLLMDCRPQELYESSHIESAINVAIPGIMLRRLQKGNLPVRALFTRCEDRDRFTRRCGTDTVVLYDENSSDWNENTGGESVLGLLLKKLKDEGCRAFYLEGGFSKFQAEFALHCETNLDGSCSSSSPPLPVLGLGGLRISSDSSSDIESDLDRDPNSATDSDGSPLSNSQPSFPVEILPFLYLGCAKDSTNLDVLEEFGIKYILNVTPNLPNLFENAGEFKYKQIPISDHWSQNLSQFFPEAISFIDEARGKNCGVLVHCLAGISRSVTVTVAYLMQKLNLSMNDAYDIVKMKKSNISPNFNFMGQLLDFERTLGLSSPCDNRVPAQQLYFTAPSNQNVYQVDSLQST

[7] = biological target: Eukaryotic translation initiation factor 4E (Mus musculus, UniProt P63073); assay: eIF4E–eIF4G protein interaction inhibitors, dose response, biochemical, TR-FRET (AID 855); assay type: functional;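 also: potency for disrupting eIF4E binding to eIF4GI seen as loss of FRET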
Sequence of Eukaryotic translation initiation factor 4E (P63073 whole entry): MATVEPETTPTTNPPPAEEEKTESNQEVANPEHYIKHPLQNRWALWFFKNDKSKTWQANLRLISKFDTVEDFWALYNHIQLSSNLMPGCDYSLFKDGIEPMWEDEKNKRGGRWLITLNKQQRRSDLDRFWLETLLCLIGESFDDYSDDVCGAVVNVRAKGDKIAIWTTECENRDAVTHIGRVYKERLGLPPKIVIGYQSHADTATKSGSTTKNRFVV

[8] = biological target: T4, Delta-type opioid receptor (Homo sapiens, UniProt P41143); assay: HTS Image-Based Screen for Antagonists of the DOR Receptor. [Related pubchem assays (depositor defined):AID1777, AID1785, AID1786, AID2133]; assay type: functional
T4 sequence (P41143 whole entry): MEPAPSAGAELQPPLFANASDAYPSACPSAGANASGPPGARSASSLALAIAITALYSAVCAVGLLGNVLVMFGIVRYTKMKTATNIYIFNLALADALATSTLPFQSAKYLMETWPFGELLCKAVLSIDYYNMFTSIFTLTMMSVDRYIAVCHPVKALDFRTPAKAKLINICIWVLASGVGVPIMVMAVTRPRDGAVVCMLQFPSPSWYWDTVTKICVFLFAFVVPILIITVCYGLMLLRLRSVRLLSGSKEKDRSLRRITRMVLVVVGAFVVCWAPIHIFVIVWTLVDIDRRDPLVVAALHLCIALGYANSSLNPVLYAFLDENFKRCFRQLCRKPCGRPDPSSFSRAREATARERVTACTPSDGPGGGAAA

[9] = inhibitors of firefly luciferase expression or activity, dose response, H4 neuroglioma cells, luminescence (AID 1990); assay type: functional, cell-based
Mu-type opioid receptor = Mu-type opioid receptor (Homo sapiens, UniProt P35372); assay: HTS Image-Based Screen for Agonists of the MOR Receptor. [Related pubchem assays (depositor defined):AID1777, AID1785, AID1786, AID2133]; assay type: functional;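 also: imaging of beta-arrestin GFP recruitment into spots after receptor activation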
Sequence of Mu-type opioid receptor (P35372 whole entry): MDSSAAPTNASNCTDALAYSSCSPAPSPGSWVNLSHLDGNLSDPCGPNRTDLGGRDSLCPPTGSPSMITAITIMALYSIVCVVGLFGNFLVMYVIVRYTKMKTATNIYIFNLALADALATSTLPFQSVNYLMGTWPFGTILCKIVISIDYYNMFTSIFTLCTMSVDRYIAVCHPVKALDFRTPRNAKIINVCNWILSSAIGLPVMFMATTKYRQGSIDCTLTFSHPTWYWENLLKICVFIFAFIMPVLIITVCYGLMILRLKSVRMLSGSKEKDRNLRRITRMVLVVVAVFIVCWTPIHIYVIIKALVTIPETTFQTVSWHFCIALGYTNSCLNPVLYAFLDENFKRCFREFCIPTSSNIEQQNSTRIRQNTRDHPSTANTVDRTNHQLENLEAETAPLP

[10] = insulin promoter down-regulators in MIN6 cells, imaging, high-content screening, mouse beta cells (AID 1628); assay type: functional
[11] = system: Streptococcus sp. 'group A'; assay: growth inhibition of control SK(-) GAS strain, dose response, counter-screen for streptokinase expression inhibitor project, luminescence, kanamycin, BacTiterGlo, confirmation (AID 1900); assay type: functional, organism-based
[12] = biological target: T4, Delta-type opioid receptor; assay: HTS Image-Based Screen for Agonists of the DOR Receptor. [Related pubchem assays (depositor defined):AID1777, AID1786, AID2133]; assay type: functional
cells [13] = assay type: functional, cell-based
[14] = cytotoxicity in MIN6 insulinoma cells, dose response, cytotoxicity control, cell-based, mouse insulinoma (AID 2122); assay type: functional;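 also: confirmatory high-throughput counterscreen run to flag cytotoxic compounds; mouse MIN-6 beta cells carrying an insulin promoter eGFP reporter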
[15] = inhibitors of SNCA 5'UTR-driven reporter translation, confirmation, H4 neuroglioma cells, luminescence (AID 1988); assay type: functional, cell-based
Streptokinase A = biological target: T5, Streptokinase A (Streptococcus pyogenes serotype M1, UniProt P10520); assay: S. pyogenes streptokinase expression inhibitors, potency, dose response, plasminogen activation absorbance, OD405 (AID 1914); assay type: functional, Streptococcus pyogenes M1 GAS;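 also: secreted streptokinase activity via plasminogen activation per viability signal from cell pellet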
T5 sequence (P10520 whole entry): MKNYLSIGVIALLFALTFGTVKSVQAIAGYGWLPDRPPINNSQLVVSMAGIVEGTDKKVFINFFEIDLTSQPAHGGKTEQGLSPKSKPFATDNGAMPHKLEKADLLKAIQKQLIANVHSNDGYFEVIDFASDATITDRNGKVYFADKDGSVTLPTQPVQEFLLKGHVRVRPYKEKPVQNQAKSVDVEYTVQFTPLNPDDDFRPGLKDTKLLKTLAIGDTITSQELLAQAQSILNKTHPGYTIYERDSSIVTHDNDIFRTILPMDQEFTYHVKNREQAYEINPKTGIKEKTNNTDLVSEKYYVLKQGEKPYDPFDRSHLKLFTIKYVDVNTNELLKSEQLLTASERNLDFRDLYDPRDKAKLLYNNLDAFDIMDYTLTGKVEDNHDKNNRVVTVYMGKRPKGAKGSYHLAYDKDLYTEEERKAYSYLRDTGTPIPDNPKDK

[16] = inhibitors of intracellular T. cruzi replication, confirmation, NIH3T3 host cells, beta-gal luminescence (AID 2044); assay type: functional, cell-based;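 also: intracellular parasites grown in NIH/3T3 mouse fibroblasts as host cells; luminescent beta-galactosidase reporter signal from transgenic T. cruzi replicating inside host cells; inhibitors lower the luminescence signal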
[17] = microbe, parasite or virus in culture; assay type: functional; conditions: Mycobacterium tuberculosis
cells [18] = assay type: functional, cell-based; remark: listed apart in the source
[19] = growth suppression of PTEN-null colon cells, dose response, cell-based, HCT116 PTEN knockout (AID 1047); assay type: functional;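 also: HCT116 colon tumor cells with PTEN knocked out; cells exposed to compound for 60 hours before readout; potency for loss of cell viability measured by luminescence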
[20] = biological target: T6, Kappa-type opioid receptor (Homo sapiens, UniProt P41145); assay type: functional
T6 sequence (P41145 whole entry): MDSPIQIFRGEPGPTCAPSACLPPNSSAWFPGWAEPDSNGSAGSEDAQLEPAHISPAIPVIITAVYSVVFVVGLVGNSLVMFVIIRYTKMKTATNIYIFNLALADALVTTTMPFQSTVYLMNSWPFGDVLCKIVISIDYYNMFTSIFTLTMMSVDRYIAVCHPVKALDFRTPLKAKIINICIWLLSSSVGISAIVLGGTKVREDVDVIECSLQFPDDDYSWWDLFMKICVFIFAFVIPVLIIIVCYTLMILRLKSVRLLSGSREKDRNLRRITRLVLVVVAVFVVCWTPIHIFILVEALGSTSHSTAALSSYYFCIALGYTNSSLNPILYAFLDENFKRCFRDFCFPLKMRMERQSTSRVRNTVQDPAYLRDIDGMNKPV

[21] = cytotoxicity toward NIH3T3 fibroblasts, dose response, counter-screen, cell-based, ATP luminescence, mouse fibroblasts (AID 2010); assay type: functional;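 also: cells exposed to compound for about 90 hours before reading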
Beta-galactosidase = Beta-galactosidase (Escherichia coli, UniProt Q8VNN2); assay type: functional
Sequence of Beta-galactosidase (Q8VNN2 whole entry): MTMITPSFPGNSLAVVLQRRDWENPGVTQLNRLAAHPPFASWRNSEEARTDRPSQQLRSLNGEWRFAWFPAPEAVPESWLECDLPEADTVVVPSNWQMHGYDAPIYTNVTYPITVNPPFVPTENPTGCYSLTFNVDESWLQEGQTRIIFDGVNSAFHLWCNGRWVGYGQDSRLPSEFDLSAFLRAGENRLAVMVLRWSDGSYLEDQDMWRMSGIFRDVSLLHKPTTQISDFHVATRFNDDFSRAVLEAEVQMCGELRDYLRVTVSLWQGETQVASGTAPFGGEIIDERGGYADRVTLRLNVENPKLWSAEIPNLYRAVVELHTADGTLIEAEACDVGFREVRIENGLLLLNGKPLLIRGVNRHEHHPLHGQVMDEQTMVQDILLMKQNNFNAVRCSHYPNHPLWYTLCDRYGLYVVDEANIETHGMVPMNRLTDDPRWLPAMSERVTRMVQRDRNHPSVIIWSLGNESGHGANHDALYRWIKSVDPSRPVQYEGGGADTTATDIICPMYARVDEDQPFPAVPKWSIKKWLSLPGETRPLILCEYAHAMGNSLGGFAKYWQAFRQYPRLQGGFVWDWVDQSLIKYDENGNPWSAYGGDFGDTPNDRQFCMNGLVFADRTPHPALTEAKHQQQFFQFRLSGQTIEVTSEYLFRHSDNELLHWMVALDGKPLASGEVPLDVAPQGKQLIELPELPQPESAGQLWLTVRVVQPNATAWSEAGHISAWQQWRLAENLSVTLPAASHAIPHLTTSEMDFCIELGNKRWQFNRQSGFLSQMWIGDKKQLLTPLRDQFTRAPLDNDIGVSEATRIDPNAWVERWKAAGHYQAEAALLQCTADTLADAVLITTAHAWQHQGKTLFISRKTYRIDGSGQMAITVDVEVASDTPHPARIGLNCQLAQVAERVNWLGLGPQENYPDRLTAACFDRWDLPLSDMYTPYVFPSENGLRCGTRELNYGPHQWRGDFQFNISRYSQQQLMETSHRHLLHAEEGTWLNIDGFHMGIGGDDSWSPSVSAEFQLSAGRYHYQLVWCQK

[22] = growth suppression of beta-catenin-knockout colon cells, dose response, cell-based, HCT116, human colon tumor (AID 1045); assay type: functional;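 also: HCT116 colon tumor cells with beta catenin knocked out; cells exposed to compound for 60 hours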
[23] = biological target: T6, Kappa-type opioid receptor; assay type: functional; remark: listed apart in the source
Streptococcus = assay: Group A Streptococcus viability loss, dose response, counter-screen for streptokinase expression inhibitor project, luminescence, BacTiterGlo (AID 1915); assay type: functional, organism-based;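 also: potency for reduction of bacterial viability or growth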
[24] = biological target: T7, Short transient receptor potential channel 4 (Mus musculus, UniProt Q9QUQ5); assay: mouse TRPC4 channel inhibitors, dose response, cell-based, HEK293 TRPC4/mu-opioid, Fluo-4 calcium (AID 434942); assay type: functional;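 also: potency of inhibitors blocking the TRPC4 calcium response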
T7 sequence (Q9QUQ5 whole entry): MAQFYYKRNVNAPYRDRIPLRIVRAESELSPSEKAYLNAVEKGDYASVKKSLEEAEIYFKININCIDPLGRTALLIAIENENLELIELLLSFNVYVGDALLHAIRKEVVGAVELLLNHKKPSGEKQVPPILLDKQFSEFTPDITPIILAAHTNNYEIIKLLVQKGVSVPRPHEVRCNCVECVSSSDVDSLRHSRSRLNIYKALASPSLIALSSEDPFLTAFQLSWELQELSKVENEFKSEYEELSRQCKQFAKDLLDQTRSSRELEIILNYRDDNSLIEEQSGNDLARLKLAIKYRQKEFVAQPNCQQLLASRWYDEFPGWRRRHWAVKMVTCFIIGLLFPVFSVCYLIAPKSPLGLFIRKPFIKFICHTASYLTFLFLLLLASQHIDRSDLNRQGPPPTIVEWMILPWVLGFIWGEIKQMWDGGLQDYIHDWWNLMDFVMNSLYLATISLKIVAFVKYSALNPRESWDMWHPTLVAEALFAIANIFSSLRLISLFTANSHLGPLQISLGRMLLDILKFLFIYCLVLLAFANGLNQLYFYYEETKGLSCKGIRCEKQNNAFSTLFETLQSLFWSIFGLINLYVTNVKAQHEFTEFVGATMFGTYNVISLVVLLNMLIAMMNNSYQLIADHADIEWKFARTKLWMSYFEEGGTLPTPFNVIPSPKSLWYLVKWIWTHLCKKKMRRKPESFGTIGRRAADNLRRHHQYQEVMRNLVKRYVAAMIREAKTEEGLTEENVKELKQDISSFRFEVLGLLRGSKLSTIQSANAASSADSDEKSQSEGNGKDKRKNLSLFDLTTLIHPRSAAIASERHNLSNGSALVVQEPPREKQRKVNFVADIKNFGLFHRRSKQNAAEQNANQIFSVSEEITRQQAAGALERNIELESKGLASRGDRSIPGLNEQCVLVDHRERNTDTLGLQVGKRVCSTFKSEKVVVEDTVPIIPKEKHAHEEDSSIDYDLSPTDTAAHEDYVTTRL

Nonstructural protein 1 = Nonstructural protein 1 (Influenza A virus, UniProt Q194T2); assay type: functional, Influenza A virus (A/California/07/2009(H1N1))
Sequence of Nonstructural protein 1 (Q194T2 whole entry): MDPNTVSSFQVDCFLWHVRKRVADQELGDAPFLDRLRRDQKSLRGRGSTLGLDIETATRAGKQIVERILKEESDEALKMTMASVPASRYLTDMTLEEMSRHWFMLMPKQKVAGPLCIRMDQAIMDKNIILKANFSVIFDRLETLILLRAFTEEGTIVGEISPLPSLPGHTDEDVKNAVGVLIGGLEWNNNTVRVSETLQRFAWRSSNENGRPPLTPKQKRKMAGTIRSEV

INS1 = assay: beta cell apoptosis inhibitors, cytokine rescue, dose response, luminescence, retest (AID 449756); assay type: functional, cell-based; conditions: Rattus norvegicus;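 also: cell death triggered by IL-1 beta plus TNF-alpha plus IFN-gamma mixture; protective hits raise ATP signal compared with cytokine alone wells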
[25] = Shn3 3'UTR reporter inhibitors, dose response, cell-based, Clone20 osteoblasts, firefly luciferase, cherry-picked (AID 624132); assay type: functional;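 also: firefly luciferase luminescence from reporter carrying the Shn3 3'UTR in osteoblasts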
[26] = HepG2 cell cytotoxicity, dose response, cytotoxicity control for Shn3 inhibitor project, CellTiter-Glo, cherry-picked (AID 624134); assay type: functional, cell-based
[27] = control 3'UTR Renilla luciferase suppression, dose response, counter-screen for Shn3 inhibitor project, cell-based, Clone20-Shn3RL, cherry-picked (AID 624133); assay type: functional

SMILES: O=C(Nc1ccc(Cl)c(Cl)c1)Nc1nnc(-c2ccncc2)s1
- CC50 [1]: 5.14 µM (active)
- IC50 [2]: 5.3 µM (active)
- IC50 [3]: 21.1 µM (active)
- IC50 [4]: 1.56 µM (active)
- IC50 [5]: 3.64 µM (active)
- IC50 [6]: 16.2 µM (active)
- IC50 [7]: > 64 µM (inactive)

SMILES: Oc1ccc(CN2CCc3ccccc3C2)c2cccnc12
- IC50 [8]: > 32 µM (inactive)
- EC50 [9]: < 0.1 µM (active)
- EC50 (Mu-type opioid receptor): > 32 µM (inactive)
- IC50 [10]: 1.96 µM (active)
- EC50 [11]: 6.14 µM (active)
- EC50 [12]: > 32 µM (inactive)
- EC50 (cells [13]): 4.63 µM (active)
- IC50 [14]: 1.69 µM (active)
- EC50 [15]: 0.528 µM (active)
- EC50 (Streptokinase A): > 150 µM (not active)
- EC50 [16]: 0.529 µM (active)
- CC50 [17]: 1.62 µM (active)
- EC50 (cells [18]): > 350 µM (not active)
- EC50 [19]: 1.82 µM (active)
- IC50 [20]: 14 µM (active)
- EC50 [21]: 5.88 µM (active)
- EC50 (Beta-galactosidase): > 31.5 µM (inactive)
- EC50 [22]: 1.52 µM (active)
- pIC50 [23]: < 4.49
- EC50 (Streptococcus): 13.8 µM (active)
- EC50 [24]: 7.5 µM (active)
- IC50 (Nonstructural protein 1): 5.76 µM (active)
- AC50 (INS1): 1.83 µM (active)
- AC50 [25]: 0.673 µM (active)
- AC50 [26]: 1.69 µM (active)
- AC50 [27]: 0.971 µM (active)
